Reference: patent US7018992B2, “Hormone composition” (Novo Nordisk A/S, priority 2000, dated 2006)
Marks after values point to notes of the source that are not given here.

Tests used:
[1] = test system: superficial vaginal and urethral cells; test: Subjects by percentages of both superficial vaginal and urethral cells, Example 3; format: in vivo, postmenopausal women
Method: (§1) All vaginal tablets were identical in appearance. Patients inserted 1 tablet daily for 14 days. Thereafter, patients inserted 1 tablet twice per week (Sunday and Thursday) for the remainder of the trial. Patients were to insert the tablets at the same time each day (preferably at bedtime). Patients were evaluated for efficacy and safety at Week—4 (screening), Week 0 (baseline), and Weeks 2, 7, and 12.
(§2) Vaginal and urethral cell samples were harvested and analyzed by independent cytologists to determine the percentages of parabasal, intermediate, and superficial cells. Maturation values were calculated according to the following equation: maturation value=1.0×[superficial cells, %]+0.5×[intermediate cells, %] Endometrial biopsies were performed at the end of the study in patients with intact uteri. The number of patients with abnormal biopsies was compared between treatment groups.

vaginal cells = test: Vaginal maturation value, Example 3; format: in vivo, postmenopausal women; details: 25 or 10 μg E2 (active treatment groups), Week 12
Method: (§3) Efficacy was measured with composite scores of vaginal symptoms (dryness, soreness, and irritation) and vaginal health (secretions, epithelial integrity, surface thickness, and pH). Vaginal and urethral cytology analyses were also performed, and the vaginal maturation value was determined. Safety assessments included endometrial biopsies.
as §1, §2

[2] = test system: superficial vaginal cells; test: Vaginal cytology, percentage of superficial cells, Example 3; format: in vivo, postmenopausal women
Method: as §3, §1, §2

[3] = test system: follicle stimulating hormone (FSH); test: Serum FSH concentration (immunoradiometric assay), Example 2; format: in vivo, postmenopausal women; details: 25 μg E2, Week 12
Method: (§4) Maturation values of vaginal mucosal cells were assessed as an indicator of changes in the condition of the vaginal mucosa in response to treatment.
(§5) Upon presentation to the clinic for each visit, a vaginal cytology specimen was obtained. Patients then inserted the tablets. […] The blood samples obtained at 30 minutes before insertion, and at 6, 12, and 24 hours after insertion were also used to determine the FSH concentration via immunoradiometric assay.
Data for area under the curve and maximal concentration were converted to a logarithmic scale, and changes from first dose (at the baseline visit) in the logarithmic values were estimated using 95% confidence intervals derived from paired t-tests. […] Differences within treatment groups in FSH concentration were determined using the Wilcoxon signed rank test based on changes from baseline in mean concentrations at weeks 2 and 12. Mean concentrations were defined as the average concentrations obtained at 30 minutes before tablet insertion and 6, 12, and 24 hours after insertion.

[4] = test system: superficial urethral cells; test: Urethral cytology, percentage of superficial cells, Example 3; format: in vivo, postmenopausal women
Method: as §3, §1, §2

endometrium = test: Endometrial biopsy at end of study, Example 3; format: in vivo, postmenopausal women
Method: as §3, §1, §2

vaginal mucosal cells = test: Maturation value of vaginal mucosal cells, Example 2; format: in vivo, postmenopausal women
Method: as §4
After the screening visit, patients received no study treatment during the 4-week run-in period prior to the baseline visit. […] The vaginal tablets were identical in appearance. Patients inserted 1 tablet intravaginally, once daily for the initial 2 weeks of the study and then twice per week (Sunday and Thursday) for the remaining 10 weeks. Patients were instructed to use their medication at a consistent time each day, preferably in the morning.
as §5
The maturation value of vaginal mucosal cells was calculated from the percentages of parabasal, intermediate, and superficial cells according to the following equation: maturation value=0×[parabasal cells, %]+0.5×[intermediate cells, %]+1.0×[superficial cells, %]

[5] = test system: postmenopausal women with atrophic vaginitis; test: Patients with vaginal pH values below 5.5, Example 3; format: in vivo
Method: as §3, §1
Investigators used a severity scale of none, mild, moderate, or severe to assess vaginal health characteristics (secretions, epithelial integrity, surface thickness, color, and pH). Severity categories were assigned ascending scores from 0 (none) to 3 (severe) for analysis. To avoid multiple endpoint issues, composite scores were defined. A composite score for vaginal health was defined as the average of the individual vaginal health characteristic scores. The composite score and the change from baseline for the composite score were examined at each time point. Differences within and between treatment groups were analyzed using an analysis of variance (ANOVA).

C[C@]12CC[C@@H]3c4ccc(O)cc4CC[C@H]3[C@@H]1CC[C@@H]2O [E2, 17β-estradiol]
Number of subjects with both superficial vaginal and urethral cells less than or equal to 5% ([1]; 10 μg E2, Week 0): 53 subjects
Number of subjects with increases in percentages of both superficial vaginal and urethral cells ([1]; 10 μg E2, Week 12): 44 subjects
Number of subjects with both superficial vaginal and urethral cells less than or equal to 5% ([1]; 25 μg E2, Week 0): 57 subjects
Number of subjects with increases in percentages of both superficial vaginal and urethral cells ([1]; 25 μg E2, Week 12): 52 subjects
Maturation value (vaginal cells): approximately 60%
Mean percentage of superficial vaginal cells ([2]; 10 μg E2, Week 0): 3.1%
Mean change from baseline in percentage of superficial vaginal cells ([2]; 10 μg E2, Week 2): 25.0^a %
Mean percentage of superficial vaginal cells ([2]; 25 μg E2, Week 0): 4.0%
Number of patients with mean FSH concentrations below 35 [3]: 3 patients
Mean percentage of superficial urethral cells ([4]; 10 μg E2, Week 0): 2.5%
Mean change from baseline in percentage of superficial urethral cells ([4]; 10 μg E2, Week 12): 6.8%
Mean percentage of superficial urethral cells ([4]; 10 μg E2, Week 12): 9.5%
Mean percentage of superficial urethral cells ([4]; 25 μg E2, Week 0): 3.2%
Mean change from baseline in percentage of superficial urethral cells ([4]; 25 μg E2, Week 12): 7.5%
Mean percentage of superficial urethral cells ([4]; 25 μg E2, Week 12): 11.2%
Endometrial biopsy result Abnormal (hyperplasia or carcinoma), number of patients (endometrium; 10 μg E2, Week 12, N = 32): 0
Endometrial biopsy result Abnormal (hyperplasia or carcinoma), percentage of patients (endometrium; 10 μg E2, Week 12, N = 32): 0.0%
Endometrial biopsy result Abnormal (hyperplasia or carcinoma), percentage of patients (endometrium; 25 μg E2, Week 12, N = 32): 3.1%
Mean maturation value (vaginal mucosal cells; 10 μg E2, Week 0 (baseline), mean ± SD): 51.0
Number of patients with increases in maturation values from baseline (vaginal mucosal cells; 10 μg E2, Week 12): 14 patients
Number of patients with increases in maturation values from baseline (vaginal mucosal cells; 25 μg E2, Week 12): 13 patients
Mean change from baseline in maturation value (vaginal mucosal cells; 25 μg E2, Week 12, mean ± SD, P ≦ .01): 7.0 ± 8.7^b
Number of patients with vaginal pH values below 5.5 ([5]; 10 μg E2, Week 0): 27/89
Number of patients with vaginal pH values below 5.5 ([5]; 10 μg E2, Week 2): 67/84
Number of patients with vaginal pH values below 5.5 ([5]; 10 μg E2, Week 7): 57/80
Number of patients with vaginal pH values below 5.5 ([5]; 10 μg E2, Week 12): 54/71
Number of patients with vaginal pH values below 5.5 ([5]; 25 μg E2, Week 0): 31/90
Number of patients with vaginal pH values below 5.5 ([5]; 25 μg E2, Week 2): 64/87
Number of patients with vaginal pH values below 5.5 ([5]; 25 μg E2, Week 7): 71/83
Percentage of patients with vaginal pH values below 5.5 ([5]; 25 μg E2, Week 7): 85.5%
Number of patients with vaginal pH values below 5.5 ([5]; 25 μg E2, Week 12): 63/79
Percentage of patients with vaginal pH values below 5.5 ([5]; 25 or 10 μg E2 (active treatment groups), Week 12): 75%
